≈ marks a conversion by molar mass, not a printed value. Where “and” joins values, the source holds several entries; their conditions need not be identical. Identical values can stand only once. Like-named read-outs stand apart in the source and are kept apart here. Square brackets hold non-standard residues; d marks the D form. Peptide text beside a SMILES is read from it. Bounds are passed on as bounds.

The values below come from paper PMC12461331, “Screening of Medicines for Malaria Venture Open Boxes Identifies Potent SARS-CoV‑2 Papain-like Protease (PL^pro) Inhibitors” (ACS Omega, 2025).

In series [1] the target is PL^pro (Severe acute respiratory syndrome coronavirus 2, UniProt P0DTD1). The following applies: 20 μM compound, 5 μM enzyme, average of triplicates with SD.
The conditions of series [2]: human, microsomes.
The conditions of series [3]: female, BALB/c, mouse, 1 h, 2 μM, pH 7.4.
Series [4] is described as follows: physchem. Conditions: pH 7.4.
A short description of series [5]: in vitro. The following applies: PAMPA.
Series [6] in a line: physchem. The following applies: 25 °C, kinetic from dmso stock.
A short description of series [7]: in vitro. Conditions: human, microsomes, pH 7.4.
A short description of series [8]: in vitro. Conditions: CD1, mouse, microsomes, pH 7.4.
Series [9] can be described thus: Plasma stability. The following applies: female, BALB/c, mouse, plasma, pH 7.4.
Series [10] is described as follows: Human liver microsomal stability assay. The following applies: human, liver microsomes, pH 7.4.
Series [11] is described as follows: Mouse liver microsomal stability assay. The following applies: CD1, mouse, liver microsomes, pH 7.4.
Series [12] relates to SARS-CoV-2. The following applies: for Data Mode: Hela-ACE2 % Positive SARS-CoV-2; for S0 / Sinf / nHill: Hela-ACE2 % Positive SARS-CoV-2, curve fit.
The test system of series [13] is HeLa-ACE2 cells.
Series [14] concerns uninfected HeLa-ACE2 cells. Conditions: Hela-ACE2 Uninfected Cell Toxicity; for qAC50: relation in column qAC50 Mode, unit not given; for S0 / Sinf / nHill: curve fit.
The test system of series [15] is HeLa-ACE2 cells. Put plainly: cells. Conditions: Homo sapiens.
Series [16] in a line: in vitro. The following applies: human, uninfected HeLa-ACE2 cells.
The test system of series [17] is SARS-CoV-2. Put plainly: microbe, parasite or virus in culture. The following applies: for AC50: Severe acute respiratory syndrome coronavirus 2, HeLa-ACE2, read-out: Log AC50 (converted); for inhibition at 9.61 µM: Severe acute respiratory syndrome coronavirus 2, HeLa-ACE2, read-out: inhibition in the highest concentration tested.
Series [18] has as its target SARS-CoV-2 PL^pro (Severe acute respiratory syndrome coronavirus 2, UniProt P0DTD1). The format is biochemical.
Where [19] appears, read: Hela-ACE2 CoV-2 Total Cell count.
[20] abbreviates: HeLa-ACE2, read-out: HeLa-ACE2 Total cells EC50.
Where [21] appears, read: uninfected HeLa-ACE2 CC50, supplement summary.
Where [22] appears, read: uninfected HeLa-ACE2 CC50, uninfected HeLa-ACE2 cells, average of triplicates.
[23] abbreviates: Severe acute respiratory syndrome coronavirus 2, HeLa-ACE2, read-out: CoV-2 EC50.
Setting [24] is: Severe acute respiratory syndrome coronavirus 2, HeLa-ACE2, read-out: SARS-CoV-2 EC50.
Setting [25] is: Severe acute respiratory syndrome coronavirus 2, HeLa-ACE2, read-out: qAC50.
Where [26] appears, read: Hela-ACE2 CoV-2 Total Cell count, curve fit.

In series [1], `CC[C@@H](C)N1CCC(C(=O)NCc2ccc(OC)cc2)CC1` (racemic) [Compound 14] yielded a ΔT m of 1.20 ± 0.06 °C. The “metabolic stability (in words)” value in series [2] is “improved stability”. For the same molecule, the “plasma stability remaining 60 min” value in series [3] came out at 30.29%. The chromatographic logD in series [4] worked out at 1.61. Also, the Papp at 5 h, 10 μM in series [5] was 0.77 ×10⁻⁶ cm/s. Besides, the kinetic solubility at 24 h in series [6] (pH 2, aqueous buffer) was above 18.4 µg/mL; in series [6] (pH 7.4, aqueous buffer), above 18.3 µg/mL. The figures for the microsomal CLint at 0.5 μM in series [7] and in series [8] were below 12 µL/min/mg and 65.6 µL/min/mg, respectively. Moreover, the half-life at 2 μM in series [9] turned out to be 3.73 h. The half-life at 0.5 μM was 301 min in series [10] and 42.3 min in [11].

On to `COc1ccc(CNC(=O)C2CCN([C@@H](C)c3ccccc3)CC2)cc1` [Compound 2], for which, in [1], the ΔT m was 1.5 °C and 1.50 ± 0.05 °C. Moreover, in [2], the “metabolic stability (in words)” value is reported as “improved stability”. The “plasma stability remaining 60 min” value in series [3] was 91.46%. This molecule also yielded a chromatographic logD in [4] of 3. The Papp at 5 h, 10 μM in [5] came out at 1.47 ×10⁻⁶ cm/s. Moreover, the solubility (kinetic) at 24 h in [6] (pH 2, aqueous buffer) was above 22.1 µg/mL; in series [6] (pH 7.4, aqueous buffer) it was above 22 µg/mL. Further, the results for the microsomal CLint at 0.5 μM in series [7] and in [8] were 24.4 µL/min/mg and 300 µL/min/mg, respectively. Also, the half-life at 0.5 μM in [10] turned out to be 114 min; in series [11] it was 9.25 min.

As for `Cc1ccc(CNC(=O)C2CCN([C@H](C)c3cccc4ccccc34)CC2)cc1` [Compound 4], in [1], the ΔT m was 7.98 °C and 7.9 ± 0.6 °C. Further, the “CoV2 Efficacy (delta S0:Sinf)” value in series [12] (HeLa-ACE2) worked out at 103.282. In addition, the “Data Mode” value in series [12] is “decreasing (weakly active)”; in [13] (setting [19]), “inactive”; in series [14] it was “inactive”. Besides, in [12], the S0 was 3.282. The molecule further registered a Sinf in [12] of -100. For the same molecule, the nHill in [12] is given as 1.703. Moreover, in series [14], the qAC50 is listed as above 3.984e-5. In addition, the “plasma stability remaining 60 min” value in series [3] was 58.47%. Moreover, the EC50 in [15] (setting [20]) was above 9.61 µM; in [15] (HeLa-ACE2, read-out: qAC50), above 9.61 µM; in series [17] (Severe acute respiratory syndrome coronavirus 2, HeLa-ACE2, read-out: SARS-CoV-2 EC50, HeLa-ACE2 cells, average of triplicates), above 9.61 µM; in series [17] (Severe acute respiratory syndrome coronavirus 2, HeLa-ACE2, read-out: qAC50, Hela-ACE2 % Positive SARS-CoV-2, relation in column qAC50 Mode, unit inferred) it was above 9.61 µM. Moreover, the CC50 at 24 h in [16] (setting [21]) and in [16] (setting [22]) was above 39.8 µM throughout. In [4], this molecule displayed a chromatographic logD of 4.56. The molecule further returned a Papp at 5 h, 10 μM in series [5] of 0.78 ×10⁻⁶ cm/s. Also, the solubility (kinetic) at 24 h was above 24.2 µg/mL in series [6] (pH 2, aqueous buffer) and 8.09 µg/mL (≈ 20.9 µM) in series [6] (pH 7.4, aqueous buffer). Further, the microsomal CLint at 0.5 μM in series [7] was 78.4 µL/min/mg; in series [8], 214 µL/min/mg. This molecule displayed a half-life at 2 μM in [9] of 6.42 h. Further, the AC50 in [17] is above 9.61 µM. For the same molecule, the values for the half-life at 0.5 μM in [10] and in [11] were 35.4 min and 13 min, respectively.

Turning to `C[C@H](c1cccc2ccccc12)N1CCC(C(=O)NCc2ccc(Cl)cc2)CC1` [Compound 12], in series [1], the ΔT m is 6.6 °C and 6.6 ± 0.2 °C. Besides, the “CoV2 Efficacy (delta S0:Sinf)” value in series [12] (HeLa-ACE2) was 104.049. Further, the “SI (average CC50/average EC50)” value came to 4.8 in series [12] (HeLa-ACE2) and 4.873 in [12] (supplement summary). The “Data Mode” value was “decreasing” in series [12], “inactive” in [13] (setting [19]) and “decreasing” in [14]. Also, the S0 was 4.049 in [12] and 0.4208 in [14]. In addition, the Sinf in series [12] and in series [14] was -100 throughout. Also, the nHill in series [12] came to 4; in series [14], 3.064. This molecule displayed a qAC50 in [14] of 1.447e-5. In series [3], the “plasma stability remaining 60 min” value came out at 89.75%. Also, the EC50 was above 9.61 µM in [15] (setting [20]); above 9.61 µM in [15] (HeLa-ACE2, read-out: qAC50); 2.97 µM in [17] (setting [23]); 2.9 ± 0.2 µM in [17] (setting [24]); 2.97 µM in series [17] (setting [25]). Besides, half-maximal activity in series [16] (AC50 at 24 h) was put at 14.5 µM. Besides, the CC50 at 24 h in series [16] (setting [21]) was 14.5 µM; in series [16] (setting [22]), 14.4 ± 0.2 µM. This molecule came in with a chromatographic logD in series [4] of 4.7. In series [5], this molecule gave a Papp at 5 h, 10 μM of 0.25 ×10⁻⁶ cm/s. Further, the kinetic solubility at 24 h is above 24.1 µg/mL in series [6] (pH 2, aqueous buffer) and 10.2 µg/mL (≈ 25.1 µM) in series [6] (pH 7.4, aqueous buffer). Besides, the microsomal CLint at 0.5 μM in series [7] amounted to 97.2 µL/min/mg; in series [8] it was 226 µL/min/mg. The same molecule had a half-life at 2 μM in [9] of 38.5 h. The AC50 in series [17] was 2.97 µM. Further, in series [17], the inhibition at 9.61 µM was above 50%. Besides, the half-life at 0.5 μM turned out to be 28.5 min in series [10] and 12.3 min in [11].

As for `CC(c1cccc2ccccc12)N1CCC(C(=O)NCc2ccc(Cl)cc2)CC1` (centres unmarked) [Compound 13], the ΔT m in [1] was 6.15 °C and 6.1 ± 0.4 °C. In addition, the “CoV2 Efficacy (delta S0:Sinf)” value in series [12] (HeLa-ACE2) was 104.884. Moreover, the “SI (average CC50/average EC50)” value in series [12] (HeLa-ACE2) worked out at 5; in series [12] (supplement summary) it was 5.083. Also, the results for the “Data Mode” value in [12], in series [13] (setting [19]) and in series [14] were “decreasing”, “increasing (weakly active)” and “decreasing”, respectively. Besides, the results for the S0 in series [12], in [13] (setting [26]) and in [14] were 4.884, -15.6144 and -6.029, respectively. For the same molecule, the Sinf is listed as -100 in series [12], 100 in series [13] (setting [26]) and -100 in series [14]. Also, the nHill was found to be 3.857 in [12], 0.852 in series [13] (setting [26]) and 4 in [14]. For the same molecule, the “Tags (tier)” value in series [12] (tier of the screening summary) is 3 (EC50< 10 µM, Efficacy >40%, SI > 5 or CC50 not reached at maximum concentration tested). The “HeLa-ACE2 Total Cell Efficacy (Sinf, note + or -)” value in series [13] (infected HeLa-ACE2 total cell count) is given as 0.852. In series [14], this molecule came in with a qAC50 of 1.885e-5. Moreover, the “plasma stability remaining 60 min” value in series [3] turned out to be 46.83%. The EC50 in series [15] (setting [20]) is above 9.61 µM; in series [15] (HeLa-ACE2, read-out: qAC50), above 9.61 µM; in series [17] (setting [23]), 3.71 µM; in [17] (setting [24]), 3.7 ± 0.5 µM; in series [17] (setting [25]), 3.71 µM. Further, the AC50 in series [15] (HeLa-ACE2, read-out: Log AC50 (converted)) was above 9.61 µM; in series [17], 3.71 µM. In addition, the AC50 at 24 h in series [16] is 18.9 µM. The CC50 at 24 h in series [16] (setting [21]) was 18.9 µM; in [16] (setting [22]), 18.8 ± 0.2 µM. In [4], this molecule displayed a chromatographic logD of 4.7. In series [5], this molecule registered a Papp at 5 h, 10 μM of 0.3 ×10⁻⁶ cm/s. Further, the solubility (kinetic) at 24 h in [6] (pH 2, aqueous buffer) is above 24.4 µg/mL; in series [6] (pH 7.4, aqueous buffer), above 13.4 µg/mL. In addition, the microsomal CLint at 0.5 μM in series [7] turned out to be 184 µL/min/mg; in series [8], 302 µL/min/mg. Further, in [9], the half-life at 2 μM came to 6.08 h. Also, the inhibition at 9.61 µM in series [17] was above 50%. Also, the half-life at 0.5 μM is 15.1 min in series [10] and 9.19 min in series [11].

For `C[C@@H](N)C(=O)N[C@H](CCCCN)C(=O)N[C@H](CCCNC(=N)N)C(=O)N[C@H](Cc1c[nH]cn1)C(=O)N[C@H](Cc1c[nH]cn1)C(=O)NCC(=O)N[C@H](Cc1ccc(O)cc1)C(=O)N[C@H](CCCCN)C(=O)N[C@H](CCCNC(=N)N)C(=O)N[C@H](CCCCN)C(=O)N[C@H](Cc1ccccc1)C(=O)N[C@H](Cc1c[nH]cn1)C(N)=O` [P-113D] (H-[dA][dK][dR][dH][dH]G[dY][dK][dR][dK][dF][dH]-NH2), the “inhibition of SARS-CoV-2 PL^pro” value in series [18] (single dose 10 μM end point screen) is at least 80%.

For `NC[C@H]1O[C@H](O[C@H]2[C@H](O)[C@@H](O[C@H]3O[C@H](CO)[C@@H](O)[C@H](N)[C@H]3O)[C@H](N)C[C@@H]2N)[C@H](N)C[C@@H]1O` [Tobramycin, reference compound], the “inhibition of SARS-CoV-2 PL^pro” value in series [18] is listed as at least 80%.
